In patent publication US20260297042A1, “BIARYLAMIDE DERIVATIVES AND THEIR USE AS PKMYT1 INHIBITORS” (CANCER RESEARCH TECHNOLOGY LIMITED, priority 2023, published 2026):

What was measured:
[1] = target: T1, Cellular PKMYT1 Biomarker CDK1 pT14 (Homo sapiens, UniProt Q99640); test: Inhibition of cellular PKMYT1 biomarker CDK1 pT14 in OVCAR 3 cells (immunoblot); assay type: cell-based; conditions: 20 hours incubation
T1 construct: read-out CDK1 phospho-T14 immunoblot
T1 sequence (Q99640 1-499): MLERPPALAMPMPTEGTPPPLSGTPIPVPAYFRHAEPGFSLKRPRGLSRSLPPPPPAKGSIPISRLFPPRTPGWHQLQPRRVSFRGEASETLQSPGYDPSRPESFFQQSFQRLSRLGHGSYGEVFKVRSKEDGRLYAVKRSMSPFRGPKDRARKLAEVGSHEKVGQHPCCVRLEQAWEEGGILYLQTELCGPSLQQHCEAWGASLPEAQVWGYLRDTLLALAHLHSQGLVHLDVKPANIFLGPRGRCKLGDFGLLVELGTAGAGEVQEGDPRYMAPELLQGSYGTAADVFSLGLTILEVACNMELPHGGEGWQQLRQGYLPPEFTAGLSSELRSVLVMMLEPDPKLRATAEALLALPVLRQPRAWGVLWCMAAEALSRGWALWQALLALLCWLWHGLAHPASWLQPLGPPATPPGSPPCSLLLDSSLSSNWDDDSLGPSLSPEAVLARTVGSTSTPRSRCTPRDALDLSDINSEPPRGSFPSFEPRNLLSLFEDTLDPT
Description: To determine compound PKMYT1 IC50 in a cellular assay, OVCAR 3 cells were incubated at 37° C. in 5% CO2 atmosphere. The cells were maintained in RPMI medium supplemented with 20% foetal bovine serum, 1X non essential amino acids, 1 mM sodium pyruvate, Glutamax and insulin. Cells were seeded into 12-well plates at low density (50,000-200,000 cells per well), grown to confluence (~350-400,000 cells per well) and then treated with a range of concentrations of PKMYT1 inhibitors. The cells were incubated 20 hours and then harvested into 1X Laemmli Sample Buffer (BIORAD) without 2-mercaptoethanol, heated to 95° C. for 5 min, centrifuged and sonicated using a microprobe for 15 sec, 21W to shear the DNA.
The samples were analysed by immunoblot on a Jess Automated Western Blot System (BioTechne). The samples were separated using the 12-230 kDa Separation Module (BioTechne,) and blotted using an anti-CDK1 phospho T14 antibody (Abcam, #ab58509) and an anti-vinculin antibody (Abcam, #126002). Specific binding was detected by fluorescence using the Anti-Rabbit Detection Module (BioTechne, #DM-001), quantified using Compass for Simple Western software, and IC50 values were calculated by regression analysis in GraphPad Prism.

WEE1 = target: T2, WEE1 (Homo sapiens, UniProt P30291); test: Selectivity versus WEE1 assay (ADP-Glo enzymatic assay); assay type: biochemical; conditions: for IC50: ADP-Glo; for PKMYT1 vs. WEE1 selectivity: fold difference in selectivity for PKMYT1 over WEE1
T2 construct: purchased Thermo Fisher PR7373A
Outline: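 Kinase at 15 nM final in 50 mM HEPES pH 7.5, 10 mM MgCl2, 1 mM EGTA, 0.01% Brij-35, 1% DMSO was started with 30 µM ATP and run 60 min at 26° C. ADP formed was read by ADP-Glo luminescence; IC50 came from dose-response curves.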

Human PKMYT1 = target: T3, Human PKMYT1 (Homo sapiens, UniProt Q99640); test: PKMYT1 biochemical ADP-Glo enzymatic assay; conditions: ADP-Glo
T3 construct: Human PKMYT1 75-362 was cloned as a TEV cleavable 6xHis fusion; 6xHis (TEV cleavable) (cleaved yes); made in house; host or cells: bacterial cells
T3 sequence (Q99640 75-362): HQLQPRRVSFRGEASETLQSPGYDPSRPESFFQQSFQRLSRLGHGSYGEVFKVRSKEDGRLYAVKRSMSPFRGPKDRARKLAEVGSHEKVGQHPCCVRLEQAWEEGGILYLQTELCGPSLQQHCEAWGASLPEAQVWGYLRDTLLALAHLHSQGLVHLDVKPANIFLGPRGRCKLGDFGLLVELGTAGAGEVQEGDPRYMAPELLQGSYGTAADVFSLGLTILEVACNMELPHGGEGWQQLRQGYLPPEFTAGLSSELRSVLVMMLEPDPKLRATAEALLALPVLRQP
Outline: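 Intrinsic ATPase activity of E. coli-expressed, tag-cleaved human PKMYT1 kinase domain (75-362), 15 nM, with 500 µM ATP in HEPES pH 7.5/MgCl2/EGTA/Brij-35, 1% DMSO, 60 min at 26 °C. ADP formed was read by ADP-Glo Max luminescence; IC50 from 10-point, 3-fold dilution curves.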

[2] = PKMYT1 kinase domain 15 nM, banded values

T2 sequence (P30291 whole entry): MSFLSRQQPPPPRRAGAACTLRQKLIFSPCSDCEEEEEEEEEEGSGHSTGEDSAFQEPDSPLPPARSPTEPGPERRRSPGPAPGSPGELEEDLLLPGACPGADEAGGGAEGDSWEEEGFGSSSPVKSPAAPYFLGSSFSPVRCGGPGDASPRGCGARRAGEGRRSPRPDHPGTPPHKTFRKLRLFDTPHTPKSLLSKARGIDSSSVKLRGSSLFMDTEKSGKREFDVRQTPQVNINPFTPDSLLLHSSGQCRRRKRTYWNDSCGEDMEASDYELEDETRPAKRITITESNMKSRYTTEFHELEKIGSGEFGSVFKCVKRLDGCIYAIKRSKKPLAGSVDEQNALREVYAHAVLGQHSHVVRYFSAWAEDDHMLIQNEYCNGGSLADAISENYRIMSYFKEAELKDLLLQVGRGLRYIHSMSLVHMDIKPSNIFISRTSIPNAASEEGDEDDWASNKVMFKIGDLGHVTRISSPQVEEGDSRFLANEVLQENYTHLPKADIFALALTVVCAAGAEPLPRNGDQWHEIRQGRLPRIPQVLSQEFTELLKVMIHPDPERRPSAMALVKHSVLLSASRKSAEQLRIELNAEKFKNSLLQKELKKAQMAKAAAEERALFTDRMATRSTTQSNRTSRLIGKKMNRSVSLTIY

Structure (SMILES)	IC50 [1] [nM]	IC50 (WEE1; WEE1 15 nM, banded values) [nM]	PKMYT1 vs. WEE1 selectivity (WEE1; banded)	IC50 (Human PKMYT1; [2]) [nM]	IC50 (WEE1; 15 nM WEE1, 60 minutes at 26° C., banded) [nM]	PKMYT1 vs. WEE1 selectivity (WEE1; banded, ">N" = at least in this band but could be higher)	IC50 (Human PKMYT1; 15 nM PKMYT1 kinase domain, 500 µM ATP, 60 minutes at 26° C., banded) [nM]
Cc1ccc(O)c(C)c1NC(=O)c1cnc(Nc2nn(C)c3ccc(C(F)(F)F)cc23)s1 [BAA-454, N-(3-hydroxy-2,6-dimethylphenyl)-2-((1-methyl-5-(trifluoromethyl)-1H-indazol-3-yl)amino)thiazole-5-carboxamide]	< 100	> 11000	X (100-<1000 fold)	50 to 1000			
Cc1ccc(O)c(C)c1NC(=O)c1cnc(Nc2ccn(C3CCN(C)C3=O)n2)s1 (stereo not shown) [BAA-601, N-(3-hydroxy-2,6-dimethylphenyl)-2-((1-(1-methyl-2-oxopyrrolidin-3-yl)-1H-pyrazol-3-yl)amino)thiazole-5-carboxamide]	100 to 1000	> 11000	X (100-<1000 fold)	< 50			
Cc1cc(Nc2ncc(C(=O)Nc3c(C)ccc(O)c3C)s2)n(C2CCCC2)n1 [BAA-231, 2-((1-cyclopentyl-3-methyl-1H-pyrazol-5-yl)amino)-N-(3-hydroxy-2,6-dimethylphenyl)thiazole-5-carboxamide]	100 to 1000				> 11000	Y (1000-5000 fold)	50 to 1000
Cn1cc(Br)c(Nc2ncc(C(=O)Nc3c(Cl)ccc(O)c3F)s2)n1 [BAA-471, 2-((4-Bromo-1-methyl-1H-pyrazol-3-yl)amino)-N-(6-chloro-2-fluoro-3-hydroxyphenyl)thiazole-5-carboxamide]	100 to 1000	> 11000	X (100-<1000 fold)	50 to 1000			
CCN(CC)C(=O)C(CO)n1cc(C)c(Nc2ncc(C(=O)Nc3c(C)ccc(O)c3C)s2)n1 (stereo not shown) [BAA-576, 2-((1-(1-(diethylamino)-3-hydroxy-1-oxopropan-2-yl)-4-methyl-1H-pyrazol-3-yl)amino)-N-(3-hydroxy-2,6-dimethylphenyl)thiazole-5-carboxamide]	< 100	1000 to 11000	X (100-<1000 fold)	< 50			
COCCN(C)C(=O)Cn1cc(C)c(Nc2ncc(C(=O)Nc3c(C)ccc(O)c3C)s2)n1 [BAA-549, N-(3-Hydroxy-2,6-dimethylphenyl)-2-((1-(2-((2-methoxyethyl)(methyl)amino)-2-oxoethyl)-4-methyl-1H-pyrazol-3-yl)amino)thiazole-5-carboxamide]	< 100	> 11000	X (100-<1000 fold)	< 50			
Cc1cn(CC(=O)N(C)CCC#N)nc1Nc1ncc(C(=O)Nc2c(C)ccc(O)c2C)s1 [BAA-523, 2-((1-(2-((2-cyanoethyl)(methyl)amino)-2-oxo-ethyl)-4-methyl-1H-pyrazol-3-yl)amino)-N-(3-hydroxy-2,6-dimethylphenyl)thiazole-5-carboxamide]	100 to 1000	1000 to 11000	X (100-<1000 fold)	< 50			
COCC(C(=O)N1CCCC1)n1cc(C)c(Nc2ncc(C(=O)Nc3c(C)ccc(O)c3C)s2)n1 (stereo not shown) [BAA-577, N-(3-Hydroxy-2.6-dimethylphenyl)-2-((1-(3-methoxy-1-oxo-1-(pyrrolidin-1-yl)propan-2-yl)-4-methyl-1H-pyrazol-3-yl)amino)thiazole-5-carboxamide]	< 100	> 11000	X (100-<1000 fold)	< 50			
Cc1cn(CC(F)F)nc1Nc1nnc(C(=O)Nc2c(C)ccc(O)c2C)s1 [BAA-464, 5-((1-(2,2-Difluoroethyl)-4-methyl-1H-pyrazol-3-yl)amino)-N-(3-hydroxy-2,6-dimethylphenyl)-1,3,4-thiadiazole-2-carboxamide]	100 to 1000	> 11000	Y (1000-5000 fold)	< 50			

The remaining lines, values ahead:

IC50 [1] [nM]	IC50 (WEE1; WEE1 15 nM, banded values) [nM]	PKMYT1 vs. WEE1 selectivity (WEE1; banded)	IC50 (Human PKMYT1; [2]) [nM]	IC50 (WEE1; 15 nM WEE1, 60 minutes at 26° C., banded) [nM]	PKMYT1 vs. WEE1 selectivity (WEE1; banded, ">N" = at least in this band but could be higher)	IC50 (Human PKMYT1; 15 nM PKMYT1 kinase domain, 500 µM ATP, 60 minutes at 26° C., banded) [nM]	Structure (SMILES)
< 100	1000 to 11000	X (100-<1000 fold)	< 50				Cc1ccc(O)c(C)c1NC(=O)c1cnc(Nc2cccc(F)n2)s1 [BAA-406, 2-((6-fluoropyridin-2-yl)amino)-N-(3-hydroxy-2,6-dimethylphenyl)thiazole-5-carboxamide]
100 to 1000	> 11000	Z (>5000 fold)	< 50				Cc1ccc(O)c(C)c1NC(=O)c1cnc(Nc2ncccc2C2CC2)s1 [BAA-412, 2-((3-cyclopropylpyridin-2-yl)amino)-N-(3-hydroxy-2,6-dimethylphenyl)thiazole-5-carboxamide]
100 to 1000	1000 to 11000	X (100-<1000 fold)	< 50				Cc1ccc(O)c(C)c1NC(=O)c1cnc(Nc2nn(C)cc2Br)s1 [BAA-473, 2-((4-bromo-1-methyl-1H-pyrazol-3-yl)amino)-N-(3-hydroxy-2,6-dimethylphenyl)thiazole-5-carboxamide]
100 to 1000	> 11000	Z (>5000 fold)	< 50				Cc1ccc(O)c(C)c1NC(=O)c1cnc(Nc2ncc(F)cc2F)s1 [BAA-413, 2-((3,5-difluoropyridin-2-yl)amino)-N-(3-hydroxy-2,6-dimethylphenyl)thiazole-5-carboxamide]
100 to 1000	1000 to 11000	X (100-<1000 fold)	< 50				Cc1cc(Nc2ncc(C(=O)Nc3c(C)ccc(O)c3C)s2)ncn1 [BAA-580, N-(3-hydroxy-2,6-dimethylphenyl)-2-((6-methylpyrimidin-4-yl)amino)thiazole-5-carboxamide]
100 to 1000	1000 to 11000	X (100-<1000 fold)	< 50				Cc1ccc(O)c(C)c1NC(=O)c1cnc(Nc2n[nH]cc2F)s1 [BAA-593, 2-((4-Fluoro-1H-pyrazol-3-yl)amino)-N-(3-hydroxy-2,6-dimethylphenyl)thiazole-5-carboxamide]
< 100	> 11000	X (100-<1000 fold)	< 50				Cc1cccnc1Nc1ncc(C(=O)Nc2c(C)ccc(O)c2C)s1 [BAA-415, N-(3-hydroxy-2,6-dimethylphenyl)-2-((3-methylpyridin-2-yl)amino)thiazole-5-carboxamide]
100 to 1000	> 11000	Y (1000-5000 fold)	< 50				Cc1ccc(O)c(C)c1NC(=O)c1cnc(Nc2nccc3cccnc23)s1 [BAA-604, 2-((1,7-naphthyridin-8-yl)amino)-N-(3-hydroxy-2,6-dimethylphenyl)thiazole-5-carboxamide]
100 to 1000	> 11000	Y (1000-5000 fold)	< 50				Cc1ccc(O)c(C)c1NC(=O)c1cnc(Nc2ncccc2F)s1 [BAA-411, 2-((3-fluoropyridin-2-yl)amino)-N-(3-hydroxy-2,6-dimethylphenyl)thiazole-5-carboxamide]
< 100	50 to 1000	W (10-<100 fold)	< 50				Cc1cn(CC#N)nc1Nc1ncc(C(=O)Nc2c(C)ccc(O)c2C)s1 [BAA-467, 2-((1-(cyanomethyl)-4-methyl-1H-pyrazol-3-yl)amino)-N-(3-hydroxy-2,6-dimethylphenyl)thiazole-5-carboxamide]
